Where a name gives a salt, the structure may show the parent alone.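 Briefly, cells in 96-well plates were exposed to five compound concentrations for 48 h, and endpoints were estimated by linear interpolation. GI50 is the concentration that inhibits growth by half.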 Activity calls are given as the source filed them. No stated cut-off is given here; in the data, active = GI50 up to about 1.1 µM and inactive = higher. Bounds are passed on as bounds.

Among the test systems are CAKI-1; CCRF-CEM; HCT-116; HCT-15; HT-29; Hs-578T; MOLT-4; NCI-H522; OVCAR-3; OVCAR-5; OVCAR-8; SF-539; SK-MEL-28; SK-OV-3; SNB-19; SNB-75; SR; TK-10; BT-549.
Assay in all cases: NCI tumour cell line growth inhibition, 48 h

As to `CCOC(=O)C(=O)/C(=C\NC(=S)Nc1ccccc1Cl)C(=O)OCC`, the GI50 is > 100 µM (inactive) in the experiment on CAKI-1; > 100 µM (inactive) in the experiment with CCRF-CEM; > 100 µM (inactive) in the experiment with HCT-116; more than 100 µM in the experiment with HCT-15; > 100 µM (inactive) in the experiment on HT-29; > 100 µM (inactive) in the experiment on Hs-578T. Also, the GI50 in the experiment on MOLT-4, with NCI-H522, in the experiment with OVCAR-3, with OVCAR-5, in the experiment with OVCAR-8 and in the experiment with SF-539 was > 100 µM (inactive) in each case. For the same molecule, the GI50 with SK-MEL-28, in the experiment on SK-OV-3, in the experiment on SNB-19, in the experiment on SNB-75 and with SR was > 100 µM (inactive) each time.
On to `CCOC(=O)Cc1csc(N/C=C2/C(=O)Oc3ccccc3C2=O)n1`, for which the GI50 in the experiment with CAKI-1 was 26.2 µM (inactive); with CCRF-CEM, 26.6 µM (inactive); in the experiment with HCT-116, 27.6 µM (inactive); in the experiment with HCT-15, 24.2 µM; with HT-29, 39.1 µM (inactive); with Hs-578T, 22 µM (inactive). Moreover, the GI50 with MOLT-4 was 10.2 µM (inactive); in the experiment with NCI-H522, 13.5 µM (inactive); with OVCAR-3, 25.9 µM (inactive); in the experiment on OVCAR-5, 37.4 µM (inactive); in the experiment on OVCAR-8, 13.1 µM (inactive); in the experiment with SF-539, 16.9 µM (inactive). In addition, the GI50 in the experiment on SK-MEL-28 was 25.1 µM (inactive); with SK-OV-3 it was 35.4 µM (inactive); with SNB-19, 24.2 µM (inactive); in the experiment on SNB-75 it was 10.9 µM (inactive); with SR, 14.3 µM (inactive); with TK-10, 24.7 µM (inactive).
On to `COC(=O)/C=C1/CCC(C)(C(=O)NS(=O)(=O)c2ccc(C)cc2)C1(C)C` (stereo not drawn), for which the GI50 in the experiment with BT-549 is > 100 µM (inactive); in the experiment on CAKI-1, > 100 µM (inactive); with CCRF-CEM it was > 100 µM (inactive); with HCT-116, > 100 µM (inactive); in the experiment on HCT-15, more than 100 µM; in the experiment on MOLT-4, > 100 µM (inactive). Moreover, the GI50 in the experiment on NCI-H522, in the experiment with OVCAR-3, in the experiment on OVCAR-5, with OVCAR-8, in the experiment on SF-539 and in the experiment on SK-MEL-28 was > 100 µM (inactive) throughout. For the same molecule, the GI50 in the experiment with SK-OV-3, in the experiment with SNB-19 and with TK-10 was > 100 µM (inactive) throughout.
As to `C=C1CCC2(C(C)=O)COC1(C)O2` (stereo not drawn), the GI50 with CCRF-CEM is > 100 µM (inactive); with HCT-116, > 100 µM (inactive); in the experiment on HCT-15, more than 100 µM; in the experiment with HT-29, > 100 µM (inactive); in the experiment with MOLT-4, > 100 µM (inactive); in the experiment with NCI-H522 it was > 10 µM (inactive). The GI50 in the experiment on OVCAR-3, in the experiment with OVCAR-8, with SF-539, in the experiment with SK-MEL-28, with SK-OV-3 and with SNB-19 was > 100 µM (inactive) in each case. Besides, the GI50 in the experiment with SNB-75 and with TK-10 was > 100 µM (inactive) in each case.
For the molecule `CCC1C(=O)C(O)[C@H]2[C@@H]3C(O)CC4=CC(=O)CC[C@]4(C)[C@H]3CC[C@]12C` (stereo partly drawn), the GI50 with CAKI-1 is > 50 µM (inactive); with CCRF-CEM it was > 50 µM (inactive); in the experiment with HCT-116, > 50 µM (inactive); with HCT-15, more than 50 µM; in the experiment with HT-29 it was > 50 µM (inactive); with Hs-578T, > 50 µM (inactive). In addition, the GI50 in the experiment on MOLT-4, in the experiment with NCI-H522, in the experiment on OVCAR-3, in the experiment with OVCAR-5, in the experiment with OVCAR-8 and in the experiment with SF-539 was > 50 µM (inactive) each time. Besides, the GI50 in the experiment on SK-MEL-28, with SK-OV-3, with SNB-19, with SNB-75, in the experiment on SR and in the experiment on TK-10 was > 50 µM (inactive) each time.
As for `CCOP12(OCC)NC(=O)OC1(C(F)(F)F)c1ccccc1O2` (stereo not drawn), the GI50 in the experiment with CCRF-CEM is > 100 µM (inactive); with HCT-116, > 100 µM (inactive); in the experiment with HCT-15, more than 100 µM; in the experiment on HT-29, > 100 µM (inactive); in the experiment with MOLT-4 it was > 100 µM (inactive); in the experiment on NCI-H522, > 100 µM (inactive). The GI50 in the experiment with OVCAR-3, in the experiment on OVCAR-8, in the experiment with SF-539, in the experiment with SK-MEL-28, in the experiment with SK-OV-3 and in the experiment with SNB-19 was > 100 µM (inactive) in each case. The GI50 was 82.8 µM (inactive) in the experiment on SNB-75 and > 100 µM (inactive) in the experiment on TK-10.
Turning to `CC1=C(CO)C2=C(C)C3(CC3)[C@@](C)(O)C(=O)C2=C1` [IROFULVEN], the GI50 in the experiment with CAKI-1 is 0.265 µM (active); with CCRF-CEM, 1.82 µM (inactive); with HCT-116, 0.21 µM (active); with HCT-15, 0.29 µM; in the experiment on HT-29, 0.234 µM (active); with Hs-578T, 0.29 µM (active). The GI50 was 0.785 µM (active) in the experiment with MOLT-4; 0.146 µM (active) with NCI-H522; 0.26 µM (active) with OVCAR-3; 0.174 µM (active) in the experiment with OVCAR-5; 0.219 µM (active) in the experiment on OVCAR-8; 0.172 µM (active) in the experiment on SF-539. For the same molecule, the GI50 in the experiment on SK-MEL-28 is 0.582 µM (active); with SK-OV-3, 0.248 µM (active); with SNB-19, 0.348 µM (active); with SNB-75, 0.191 µM (active); with SR, 0.792 µM (active); with TK-10, 0.279 µM (active).
Take `COc1ccc(/C=C2\N=C(SC)N(CN3CCOCC3)C2=O)cc1`: the GI50 with CCRF-CEM was 21.2 µM (inactive); in the experiment with HCT-116, 33.1 µM (inactive); in the experiment on HCT-15, 30.7 µM; in the experiment on HT-29 it was 27.5 µM (inactive); with Hs-578T it was 59.2 µM (inactive); with MOLT-4 it was 36.4 µM (inactive). In addition, the GI50 was 82.8 µM (inactive) in the experiment on NCI-H522; 90.6 µM (inactive) in the experiment on OVCAR-3; > 100 µM (inactive) in the experiment on OVCAR-5; 48.2 µM (inactive) in the experiment with OVCAR-8; > 100 µM (inactive) in the experiment with SK-MEL-28; > 100 µM (inactive) in the experiment on SK-OV-3. Moreover, the GI50 in the experiment on SNB-19 was 84.5 µM (inactive); with SNB-75, 60.7 µM (inactive); in the experiment with SR, 30.8 µM (inactive); in the experiment on TK-10 it was 56.5 µM (inactive).
For `C#CCSc1nc(N)c2ncn(C3OC(CO)C(O)C3O)c2n1` (stereo not drawn), the GI50 with CCRF-CEM was > 100 µM (inactive); with HCT-116 it was > 100 µM (inactive); with HCT-15, more than 100 µM; in the experiment on HT-29, > 100 µM (inactive); in the experiment with MOLT-4, > 100 µM (inactive); in the experiment on NCI-H522 it was > 100 µM (inactive). The GI50 in the experiment on OVCAR-3, with OVCAR-8, in the experiment on SK-MEL-28, in the experiment on SNB-19, in the experiment on SR and with TK-10 was > 100 µM (inactive) throughout.
For the molecule `c1csc(-c2nnc(C34CC5CC(CC(C5)C3)C4)o2)c1`, the GI50 was 87.1 µM (inactive) in the experiment with CAKI-1; 21.7 µM (inactive) in the experiment with CCRF-CEM; 32.2 µM (inactive) in the experiment with HCT-116; 38.1 µM in the experiment on HCT-15; 19 µM (inactive) in the experiment with HT-29; 31.6 µM (inactive) with Hs-578T. Also, the GI50 in the experiment on MOLT-4 was 24.7 µM (inactive); with NCI-H522, 36.8 µM (inactive); in the experiment with OVCAR-3 it was 13.6 µM (inactive); with OVCAR-5, 32.4 µM (inactive); in the experiment on OVCAR-8 it was 37.6 µM (inactive); in the experiment on SF-539 it was 19 µM (inactive). Besides, the GI50 in the experiment on SK-MEL-28 is 40.6 µM (inactive); in the experiment on SK-OV-3 it was 53.1 µM (inactive); in the experiment on SNB-19 it was 51.6 µM (inactive); in the experiment on SNB-75, 32.5 µM (inactive); in the experiment on SR, 27.7 µM (inactive); in the experiment with TK-10, 47.4 µM (inactive).
Take `O=C1Oc2ccccc2C(=O)/C1=C/N1C(=O)N/C(=C\c2cccc(O)c2)C1=O`: the GI50 is 21.8 µM (inactive) in the experiment with BT-549; 41 µM (inactive) in the experiment with CAKI-1; 76 µM (inactive) with HCT-116; 61.9 µM in the experiment with HCT-15; > 100 µM (inactive) in the experiment on HT-29; 86.5 µM (inactive) with MOLT-4. Also, the GI50 was > 100 µM (inactive) in the experiment with OVCAR-3; > 100 µM (inactive) with OVCAR-5; 33.2 µM (inactive) in the experiment on OVCAR-8; 99.5 µM (inactive) in the experiment with SF-539; > 100 µM (inactive) in the experiment on SK-MEL-28; > 100 µM (inactive) in the experiment on SK-OV-3. Also, the GI50 was 45.3 µM (inactive) in the experiment on SNB-19, 8.36 µM (inactive) in the experiment with SNB-75 and 46.1 µM (inactive) in the experiment with TK-10.
Consider `NCCCNCCCCNCCCN` [SPERMINE TETRAHYDROCHLORIDE], for which the GI50 in the experiment on CAKI-1 was 5.97 µM (inactive); in the experiment with CCRF-CEM it was 3.67 µM (inactive); with HCT-116, 2.73 µM (inactive); with HCT-15 it was 2.67 µM; in the experiment with HT-29, 15.6 µM (inactive); in the experiment with Hs-578T, 11.9 µM (inactive). The GI50 with MOLT-4 is 4.53 µM (inactive); with NCI-H522, 0.374 µM (active); with OVCAR-5, > 100 µM (inactive); with OVCAR-8, 34.3 µM (inactive); with SF-539 it was 8.83 µM (inactive); in the experiment with SK-OV-3 it was > 38.7 µM (inactive). The GI50 with SNB-19 is > 100 µM (inactive); in the experiment with SNB-75, > 100 µM (inactive); with SR it was 3.74 µM (inactive); in the experiment with TK-10, 6.62 µM (inactive).
Turning to `C(=N\Cc1ccccc1)/c1ccccc1-c1ccccc1/C=N/Cc1ccccc1`, the GI50 in the experiment on CAKI-1 was > 10 µM (inactive); in the experiment with CCRF-CEM, 2.65 µM (inactive); with HCT-116, 2.86 µM (inactive); with HCT-15, 5.47 µM; in the experiment on HT-29 it was > 10 µM (inactive); in the experiment with MOLT-4, 3.52 µM (inactive). Moreover, the GI50 in the experiment with NCI-H522 was > 10 µM (inactive); in the experiment with OVCAR-3 it was 4.6 µM (inactive); with OVCAR-5, > 10 µM (inactive); with OVCAR-8, > 10 µM (inactive); with SF-539, > 10 µM (inactive); in the experiment with SK-MEL-28, > 7.57 µM (inactive). Further, the GI50 in the experiment on SK-OV-3 was > 10 µM (inactive); in the experiment with SNB-19, > 10 µM (inactive); in the experiment on SNB-75 it was 4.59 µM (inactive); in the experiment with SR it was 3.26 µM (inactive); in the experiment on TK-10, > 10 µM (inactive).

Source of the values: ChEMBL document CHEMBL1201862, “PubChem BioAssay data set” (2004).
